Laboratory results published in patent publication US10286084B2, “Compositions for the inactivation of virus replication and methods of making and using the same” (priority 2014, dated 2019).

Columns and labels:
HPV-18 E6 gene = assay: Mutagenesis spectra: PCR, cloning and sequencing of HeLa genomic DNA; assay type: cell-based; details: Spy Cas9, 48 h post-transfection, of 234 DNA sequence reads
Description: (§1) HeLa cells were plated at 2.5×10^5 cells per well in 6-well plates and transfected using Fugene6 with a 3 to 1 ratio of RGN expression vector to pL/CMV/eGFP (pLCE) (Seedorf et al., 1987), which expresses eGFP, to determine transfection efficiency. Genomic DNA was extracted 48 hours post-transfection using a DNeasy kit (Qiagen) following the manufacturer's protocol. The genomic region surrounding the viral target sites was PCR amplified using GoTaq cocktail (Promega, #9PIM300) and then purified. PCR products were then denatured and reannealed to enable DNA heteroduplex formation: 95° C. for 10 min, 95° C. to 85° C. ramping at −1° C./sec, 85° C. to 25° C. at −0.25° C./sec, and 25° C. hold for 1 minute. After reannealing, products were treated with SURVEYOR nuclease and SURVEYOR enhancer S (Transgenomics) following the manufacturer's protocol, and analyzed on a 2% agarose gel. To determine the sequence spectra of the mutations introduced by HPV-18 E6- and E7-specific sgRNAs, we designed primers with unique restriction enzyme sites that bound sequences flanking the predicted RGN cleavage locations. The mutagenized HeLa genomic DNA was PCR amplified at 48 hours after transfection, cloned, sequenced, and aligned to the HeLa genome.
(§2) We next asked if we could inactivate the endogenous HPV-18 E6 and E7 genes integrated into the HeLa cell genome. As all four sgRNAs appeared to function equivalently, we focused our subsequent research on E6 sgRNA1 and E7 sgRNA1. To confirm these sgRNAs were indeed inducing the expected DNA cleavage, we used the SURVEYOR assay to determine if we could detect RGN-induced indels at the predicted Cas9 cleavage site. For this purpose, we transfected HeLa cells with a px330-based vector encoding Spy Cas9 (Cong et al., 2013) and an E6- or E7-specific sgRNA. At 48 hours post-transfection, we isolated the HeLa genomic DNA and PCR-amplified the regions of the HPV-18 genome containing either the E6 or E7 target site for Cas9. The resultant PCR fragment was then isolated, denatured and then re-annealed to produce a population of DNA heteroduplexes that were digested using SURVEYOR nuclease, which is predicted to cleave at any sites of Cas9-induced mutagenesis. […] To further characterize these mutations, we cloned the same PCR fragments derived from the HPV-18 E6 or E7 gene and then performed DNA sequencing across the predicted cleavage site located 3 bp 5′ to the Cas9 PAM sequence (Mali et al., 2013). Analysis of the HPV-18 E6 gene gave 234 DNA sequence reads, of which 19 bore an assortment of different deletion mutations while 34 contained the same insertion mutation of a single “A” residue 3 bp 5′ to the Spy Cas9 PAM motif. The remaining 181 samples analyzed contained the wildtype E6 sequence. […]

p53 and p21 expression = assay: Western blot of transfected HeLa cells for p53 and p21; assay type: cell-based, human; details: Spy Cas9, 48 h post-transfection
Description: (§3) Phenotypic analysis of RGNs in HeLa was performed using the Fugene6 transfection reagent as per the manufacturer's protocol. Cells were plated at 2.5×10^5 cells per well in 6-well plates and transfected with a 3 to 1 ratio of RGN expression vector to pLCE (a GFP-expressing plasmid included to determine transfection efficiency). SiHa cells were transfected with HPV-16-specific RGN expression vectors using Lipofectamine3000 (Clontech) using the manufacturer's protocol. Cells were then harvested and lysed in SDS/β-mercaptoethanol protein lysis buffer 48 hours post transfection. Lysates were subjected to electrophoresis on 4-20% SDS-polyacrylamide gels (Bio-Rad) and transferred to nitrocellulose membranes. The membranes were then probed in 5% milk-PBS-T (PBS, 0.1% Tween 20, 0.5% bovine serum albumin) with the following antibodies: anti-Flag (Sigma F1804), a rabbit Rev polyclonal antiserum (Malim et al., 1989), anti-β-actin (Santa Cruz S.C.-47778), anti-p53 (Santa Cruz S.C.-126), anti-p21 (Santa Cruz S.C.-397), and anti-Rb (BD Pharmigen 554136). The membranes were washed in PBS-T, incubated with a species-specific secondary antibody, and then washed again in PBS-T. The membranes were incubated with Western Bright Sirius Western blot detection kit (Advansta) and signals captured using GeneSnap and quantified using GeneTools (Syngene). […]

[1] = test system: retinoblastoma (Rb) protein; assay: Western blot and pRB quantification in transfected HeLa cells; assay type: cell-based, human
Description: as §3

HPV-18 E7 gene = assay: Mutagenesis spectra: PCR, cloning and sequencing of HeLa genomic DNA; assay type: cell-based; details: Spy Cas9, 48 h post-transfection, of 232 DNA sequences
Description: as §1, §2

Substance	DNA sequence reads bearing deletion mutations (HPV-18 E6 gene)	DNA sequence reads with insertion of a single A residue 3 bp 5′ to the PAM (HPV-18 E6 gene)	p53 and p21 expression (p53 and p21 expression)	increase in Rb expression normalized to β-actin internal control ([1]; Spy Cas9, 48 h post-transfection)	increase in Rb expression over the control, decrease of Cas9 expression taken into account ([1]; Spy Cas9, p=0.011)	DNA sequences with deletion mutations adjacent to the predicted cleavage site (HPV-18 E7 gene)	DNA sequences with insertions of 1 or 2 bp (HPV-18 E7 gene)
E6 sgRNA1: Spy Cas9 sgRNA for HPV-18 E6, GGCGCTTTGAGGATCCAACA; SEQ ID NO: 8 (expressed or natural sequence)	19	34	specific induction of both p53 and p21 expression	–	–	–	–
E7 sgRNA1: Spy Cas9 sgRNA for HPV-18 E7, GGAGCAATTAAGCGACTCAG; SEQ ID NO: 10 (expressed or natural sequence)	–	–	–	1.4±0.03 fold	5.54±1.42 fold	6	46
